Experimental data as given in patent US20230085307A1, “PYRIDAZINONE COMPOUND AND HERBICIDE” (NISSAN CHEMICAL CORPORATION, priority 2019, published 2023).

Tests used:
wild oat [1] = experiment: Test Example 5: herbicidal effect by foliage application, plastic box (Table 20, symbol I); type: in vivo, wild oat (Avena fatua); details: foliage application, 320 g/ha, three weeks after application
Method in brief: (§1)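 Plants were sown into sterilized diluvial soil under about 1.5 cm cover and kept in a greenhouse at 25° C. to 30° C. Fourteen days on, foliage received an even spray of the diluted emulsion. Herbicidal or crop effect was judged three weeks afterwards.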

lambsquarters = experiment: Test Example 5: herbicidal effect by foliage application, plastic box (Table 20, symbol O); type: in vivo, lambsquarters (Chenopodium album); details: foliage application, 320 g/ha, three weeks after application
Method in brief: as §1

wild oat [2] = experiment: Test Example 4: herbicidal effect by soil treatment (Table 19, symbol I); type: in vivo, wild oat (Avena fatua); details: amount of applied herbicide 320 g/ha
Method in brief: (§2)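 In this soil treatment, the formulated compound reached the seeds only through the soil: seeds were buried about 1.5 cm deep in sterilized diluvial soil, then the diluted emulsion was sprayed over the surface. After three weeks at 25° C. to 30° C. in a greenhouse, effects were graded on criteria from an earlier test.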

southern crabgrass [3] = experiment: Test Example 5: herbicidal effect by foliage application, plastic box (Table 20, symbol F); type: in vivo, southern crabgrass (Digitaria ciliaris); details: foliage application, 320 g/ha, three weeks after application
Method in brief: as §1

barnyard grass = experiment: Test Example 5: herbicidal effect by foliage application, plastic box (Table 20, symbol H); type: in vivo, barnyard grass (Echinochloa crus-galli); details: foliage application, 320 g/ha, three weeks after application
Method in brief: as §1

blackgrass [4] = experiment: Test Example 5: herbicidal effect by foliage application, plastic box (Table 20, symbol J); type: in vivo, blackgrass (Alopecurus myosuroides); details: foliage application, 320 g/ha, three weeks after application
Method in brief: as §1

Chinese sprangletop = experiment: Test Example 3: herbicidal effect by foliage application, Wagner pot (Table 18, symbol D); type: in vivo, chinese sprangletop (Leptochloa chinensis)
Method in brief: (§3)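 Plants were sown in alluvial soil held under 0.1–0.5 cm standing water and grown 14 days in a greenhouse at 25–30 °C. An emulsifiable formulation, water-diluted to the set dose, was then sprayed onto the foliage, and effects were scored three weeks later using previously defined criteria.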

redroot pigweed = experiment: Test Example 4: herbicidal effect by soil treatment (Table 19, symbol N); type: in vivo, redroot pigweed (Amaranthus retroflexus); details: amount of applied herbicide 320 g/ha
Method in brief: as §2

blackgrass [5] = experiment: Test Example 4: herbicidal effect by soil treatment (Table 19, symbol J); type: in vivo, blackgrass (Alopecurus myosuroides); details: amount of applied herbicide 320 g/ha
Method in brief: as §2

oval-leafed pondweed = experiment: Test Example 1: herbicidal activity, application before weed generation under submerged conditions (Table 16, symbol C); type: in vivo, oval-leafed pondweed (Monochoria vaginalis); details: amount of applied herbicide 320 g/ha
Method in brief: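 Alluvial soil was flooded to 4 cm depth, weed seeds were sown mixed and 2.5-leaf rice seedlings were transplanted. On sowing day, the compound's emulsion, diluted in water to a set dose, was applied to the water surface. Plants grew at 25–30 °C and were scored 0–5 after three weeks.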

rice flat sedge = experiment: Test Example 3: herbicidal effect by foliage application, Wagner pot (Table 18, symbol E); type: in vivo, rice flat sedge (Cyperus iria)
Method in brief: as §3

velvetleaf = experiment: Test Example 5: herbicidal effect by foliage application, plastic box (Table 20, symbol M); type: in vivo, velvetleaf (Abutilon theophrasti); details: foliage application, 320 g/ha, three weeks after application
Method in brief: as §1

southern crabgrass [6] = experiment: Test Example 4: herbicidal effect by soil treatment (Table 19, symbol F); type: in vivo, southern crabgrass (Digitaria ciliaris); details: amount of applied herbicide 320 g/ha
Method in brief: as §2

Japanese bulrush = experiment: Test Example 2: herbicidal activity, application during weed generation under submerged conditions (Table 17, symbol B); type: in vivo, Japanese bulrush (Schoenoplectus juncoides); details: AAH 320 g/ha; application during weed generation, submerged conditions
Method in brief: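 Effect on each weed is rated three weeks post-treatment, using the same scoring criteria as the preceding test. Plants grow from mixed-sown seed in flooded alluvial soil (4 cm water) at 25° C. to 30° C., and are treated at one to two leaves with diluted emulsion dropped onto the water.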

Italian ryegrass = experiment: Test Example 5: herbicidal effect by foliage application, plastic box (Table 20, symbol K); type: in vivo, Italian ryegrass (Lolium multiflorum); details: foliage application, 320 g/ha, three weeks after application
Method in brief: as §1

green foxtail = experiment: Test Example 4: herbicidal effect by soil treatment (Table 19, symbol G); type: in vivo, green foxtail (Setaria viridis); details: amount of applied herbicide 320 g/ha
Method in brief: as §2

[7] = amount of applied herbicide 320 g/ha

COc1ccccc1-c1sc2cc(OC(C)C)ccc2c1-c1c(O)c(C)nn(C)c1=O [3-101]
I: wild oat, herbicidal effect grade (wild oat [1]): 4 (Herbicidal rate of 70% or more and less than 90%)
O: lambsquarters, herbicidal effect grade (lambsquarters): 5 (Herbicidal rate of 90% or more (almost completely withered))
I: wild oat, herbicidal effect grade (wild oat [2]): 1 (Herbicidal rate of 5% or more and less than 20%)
F: southern crabgrass, herbicidal effect grade (southern crabgrass [3]): 5 (Herbicidal rate of 90% or more (almost completely withered))
H: barnyard grass, herbicidal effect grade (barnyard grass): 5 (Herbicidal rate of 90% or more (almost completely withered))
J: blackgrass, herbicidal effect grade (blackgrass [4]): 5 (Herbicidal rate of 90% or more (almost completely withered))
herbicidal effect on Chinese sprangletop (D) (Chinese sprangletop; 320 g/ha): 3 (Herbicidal rate of 40% or more and less than 70%)
N: redroot pigweed, herbicidal effect grade (redroot pigweed): 4 (Herbicidal rate of 70% or more and less than 90%)
J: blackgrass, herbicidal effect grade (blackgrass [5]): 4 (Herbicidal rate of 70% or more and less than 90%)
Herbicidal effect, C: oval-leafed pondweed (oval-leafed pondweed): 5 (Herbicidal rate of 90% or more (almost completely withered))
herbicidal effect on rice flat sedge (E) (rice flat sedge; 320 g/ha): 5 (Herbicidal rate of 90% or more (almost completely withered))
M: velvetleaf, herbicidal effect grade (velvetleaf): 5 (Herbicidal rate of 90% or more (almost completely withered))
F: southern crabgrass, herbicidal effect grade (southern crabgrass [6]): 2 (Herbicidal rate of 20% or more and less than 40%)
herbicidal effect rating, B: Japanese bulrush (Japanese bulrush): 3 (Herbicidal rate of 40% or more and less than 70%)
K: Italian ryegrass, herbicidal effect grade (Italian ryegrass): 5 (Herbicidal rate of 90% or more (almost completely withered))
G: green foxtail, herbicidal effect grade (green foxtail): 5 (Herbicidal rate of 90% or more (almost completely withered))

CCCC(=O)Oc1c(CC)nn(C)c(=O)c1-c1c(-c2ccc(C(F)(F)F)cc2)sc2ccc(F)cc12 [2-411]
I: wild oat, herbicidal effect grade (wild oat [1]): 0 (Herbicidal rate of 5% or less (almost no effect))
O: lambsquarters, herbicidal effect grade (lambsquarters): 4 (Herbicidal rate of 70% or more and less than 90%)
herbicidal effect, I: wild oat (wild oat [2]): 0 (Herbicidal rate of 5% or less (almost no effect))
F: southern crabgrass, herbicidal effect grade (southern crabgrass [3]): 3 (Herbicidal rate of 40% or more and less than 70%)
H: barnyard grass, herbicidal effect grade (barnyard grass): 3 (Herbicidal rate of 40% or more and less than 70%)
J: blackgrass, herbicidal effect grade (blackgrass [4]): 0 (Herbicidal rate of 5% or less (almost no effect))
herbicidal effect on D: Chinese sprangletop (Chinese sprangletop; [7]): 3 (Herbicidal rate of 40% or more and less than 70%)
herbicidal effect, N: redroot pigweed (redroot pigweed): 0 (Herbicidal rate of 5% or less (almost no effect))
herbicidal effect, J: blackgrass (blackgrass [5]): 0 (Herbicidal rate of 5% or less (almost no effect))
Herbicidal effect, C: oval-leafed pondweed (oval-leafed pondweed): 0 (Herbicidal rate of 5% or less (almost no effect))
herbicidal effect on E: rice flat sedge (rice flat sedge; [7]): 3 (Herbicidal rate of 40% or more and less than 70%)
M: velvetleaf, herbicidal effect grade (velvetleaf): 1 (Herbicidal rate of 5% or more and less than 20%)
herbicidal effect, F: southern crabgrass (southern crabgrass [6]): 0 (Herbicidal rate of 5% or less (almost no effect))
herbicidal effect rating, B: Japanese bulrush (Japanese bulrush): 0 (Herbicidal rate of 5% or less (almost no effect))
K: Italian ryegrass, herbicidal effect grade (Italian ryegrass): 0 (Herbicidal rate of 5% or less (almost no effect))
herbicidal effect, G: green foxtail (green foxtail): 0 (Herbicidal rate of 5% or less (almost no effect))

CCOc1ccccc1-c1sc2ccc(F)cc2c1-c1c(O)c(CC)nn(C)c1=O [2-416]
I: wild oat, herbicidal effect grade (wild oat [1]): 0 (Herbicidal rate of 5% or less (almost no effect))
O: lambsquarters, herbicidal effect grade (lambsquarters): 2 (Herbicidal rate of 20% or more and less than 40%)
herbicidal effect, I: wild oat (wild oat [2]): 0 (Herbicidal rate of 5% or less (almost no effect))
F: southern crabgrass, herbicidal effect grade (southern crabgrass [3]): 1 (Herbicidal rate of 5% or more and less than 20%)
H: barnyard grass, herbicidal effect grade (barnyard grass): 3 (Herbicidal rate of 40% or more and less than 70%)
J: blackgrass, herbicidal effect grade (blackgrass [4]): 0 (Herbicidal rate of 5% or less (almost no effect))
herbicidal effect on D: Chinese sprangletop (Chinese sprangletop; [7]): 3 (Herbicidal rate of 40% or more and less than 70%)
herbicidal effect, N: redroot pigweed (redroot pigweed): 0 (Herbicidal rate of 5% or less (almost no effect))
herbicidal effect, J: blackgrass (blackgrass [5]): 0 (Herbicidal rate of 5% or less (almost no effect))
Herbicidal effect, C: oval-leafed pondweed (oval-leafed pondweed): 2 (Herbicidal rate of 20% or more and less than 40%)
herbicidal effect on E: rice flat sedge (rice flat sedge; [7]): 4 (Herbicidal rate of 70% or more and less than 90%)
M: velvetleaf, herbicidal effect grade (velvetleaf): 3 (Herbicidal rate of 40% or more and less than 70%)
herbicidal effect, F: southern crabgrass (southern crabgrass [6]): 0 (Herbicidal rate of 5% or less (almost no effect))
herbicidal effect rating, B: Japanese bulrush (Japanese bulrush): 3 (Herbicidal rate of 40% or more and less than 70%)
K: Italian ryegrass, herbicidal effect grade (Italian ryegrass): 0 (Herbicidal rate of 5% or less (almost no effect))
herbicidal effect, G: green foxtail (green foxtail): 0 (Herbicidal rate of 5% or less (almost no effect))

Cc1nn(C)c(=O)c(-c2c(-c3ccc(OCC(C)C)cc3)oc3ccc(F)cc23)c1O [9-027]
herbicidal effect on wild oat (I) (wild oat [1]): 4 (Herbicidal rate of 70% or more and less than 90%)
herbicidal effect on lambsquarters (O) (lambsquarters): 5 (Herbicidal rate of 90% or more (almost completely withered))
I: wild oat, herbicidal effect grade (wild oat [2]): 0 (Herbicidal rate of 5% or less (almost no effect))
herbicidal effect on southern crabgrass (F) (southern crabgrass [3]): 5 (Herbicidal rate of 90% or more (almost completely withered))
herbicidal effect on barnyard grass (H) (barnyard grass): 5 (Herbicidal rate of 90% or more (almost completely withered))
herbicidal effect on blackgrass (J) (blackgrass [4]): 5 (Herbicidal rate of 90% or more (almost completely withered))
Herbicidal effect on D (Chinese sprangletop), foliage application (Chinese sprangletop; [7]): 2 (Herbicidal rate of 20% or more and less than 40%)
N: redroot pigweed, herbicidal effect grade (redroot pigweed): 5 (Herbicidal rate of 90% or more (almost completely withered))
J: blackgrass, herbicidal effect grade (blackgrass [5]): 4 (Herbicidal rate of 70% or more and less than 90%)
Herbicidal effect, C: oval-leafed pondweed (oval-leafed pondweed): 5 (Herbicidal rate of 90% or more (almost completely withered))
Herbicidal effect on E (rice flat sedge), foliage application (rice flat sedge; [7]): 5 (Herbicidal rate of 90% or more (almost completely withered))
herbicidal effect on velvetleaf (M) (velvetleaf): 5 (Herbicidal rate of 90% or more (almost completely withered))
F: southern crabgrass, herbicidal effect grade (southern crabgrass [6]): 5 (Herbicidal rate of 90% or more (almost completely withered))
herbicidal effect rating, B: Japanese bulrush (Japanese bulrush): 3 (Herbicidal rate of 40% or more and less than 70%)
herbicidal effect on Italian ryegrass (K) (Italian ryegrass): 5 (Herbicidal rate of 90% or more (almost completely withered))
G: green foxtail, herbicidal effect grade (green foxtail): 5 (Herbicidal rate of 90% or more (almost completely withered))
